Measurements as given in PMC6254286, “Quantitative Structure − Antiprotozoal Activity Relationships of Sesquiterpene Lactones ^†” (Molecules, 2009).
Read-outs that look alike come from different tables or passages of the source.

Assays:
[1] = test system: K1 strain of P. falciparum; assay: Antiplasmodial [3H]-hypoxanthine incorporation assay; format: cell-based, Plasmodium falciparum; conditions: Plasmodium falciparum
Protocol: Plasmodium falciparum. Antiplasmodial activity was determined using the K1 strain of P. falciparum (resistant to chloroquine and pyrimethamine). A modification of the [3H]-hypoxanthine incorporation assay was used. Briefly, infected human red blood cells (final parasitaemia and haematocrit were 0.3% and 1.25%, respectively) in RPMI 1640 medium with 5% Albumax were exposed to serial drug dilutions in microtiter plates. After 48 hours of incubation at 37°C in a reduced oxygen atmosphere, 0.5 mCi 3H-hypoxanthine was added to each well. Cultures were incubated for a further 24 h before they were harvested onto glass-fiber filters and washed with distilled water. The radioactivity was counted using a BetaplateTM liquid scintillation counter (Wallac, Zurich, Switzerland). […] From the sigmoidal inhibition curves IC50 values were calculated. Assays were run in duplicate and repeated once.

[2] = test system: Leishmania donovani amastigotes (strain MHOM/ET/67/L82); assay: L. donovani axenic amastigote assay (resazurin); format: cell-based; conditions: for IC50: Leishmania donovani
Protocol: Leishmania donovani (axenic amastigote assay). […] Serial drug dilutions in duplicates were prepared covering a range from 30 to 0.041 µg/mL. […] The compounds used as positive controls in the various bioassays (see Table 1) were of commercial origin, with the exception of melarsoprol, which was a gift from WHO. Their purity (generally > 95%) was specified by the manufacturers.

[3] = Cytotoxicity against L6 cells (Alamar blue); conditions: rat; for IC50: IC50 Cytotoxicity (L6), L6 rat skeletal myoblasts, 72 h, mean of two independent measurements
Protocol: (§1) Trypanosoma brucei rhodesiense and cytotoxicity against L6 cells. Minimum Essential Medium with Earle’s salts (50 µL) supplemented with 0.2 mM 2-mercapto-ethanol, 1 mM Na-pyruvate and 15% heat-inactivated horse serum was added to each well of a 96-well microtiter plate. […] Then 10^4 bloodstream forms of Trypanosoma brucei rhodesiense STIB 900 in 50 µL of medium were added to each well and the plate incubated at 37°C under a 5% CO2 atmosphere for 72 hours. […] The plate was then read in a Spectramax Gemini XS microplate fluorometer (Molecular Devices Corporation, Sunnyvale, CA, USA) using an excitation wavelength of 536 nm and emission wavelength of 588 nm. Fluorescence development was measured and expressed as percentage of the control. Data were transferred into the graphic programme Softmax Pro (Molecular Devices) which calculated IC50 values. Cytotoxicity was assessed using a similar protocol and rat skeletal myoblasts (L6 cells). […] All following steps were according to the T. b. rhodesiense protocol.

[4] = test system: T. cruzi Tulahuen strain C2C4; assay: In vitro activity against T. cruzi in L-6 host cells (beta-galactosidase/CPRG); format: cell-based, Trypanosoma cruzi; conditions: Trypanosoma cruzi, read-out: IC50 T. cruzi (Tcr)
Protocol: Trypanosoma cruzi. Rat skeletal myoblasts (L-6 cells) were seeded in 96-well microtiter plates at 2,000 cells/well in 100 µL RPMI 1640 medium with 10% FBS (fetal bovine serum) and 2 mM L-glutamine. After 24 hours the medium was removed and replaced by 100 µL per well containing 5,000 trypomastigote forms of T. cruzi Tulahuen strain C2C4 containing the β-galactosidase (Lac Z) gene. Fortyeight hours later the medium was removed from the wells and replaced by […] fresh medium with or without a serial drug dilution. Seven 3-fold dilutions were used covering a range from […]. Each drug was tested in duplicate. After 96 hours of incubation the plates were inspected under an inverted microscope to assure growth of the controls and sterility. Then the substrate CPRG/ Nonidet (50 µL) was added to all wells. A colour reaction developed within 2-6 hours and could be read photometrically at 540 nm.

[5] = test system: Trypanosoma brucei rhodesiense STIB 900; assay: In vitro activity against T. brucei rhodesiense bloodstream forms (Alamar blue); format: cell-based; conditions: for IC50: mean of two independent measurements; for selectivity index (SI) with respect to Tbr: ratio of cytotoxic IC50 (L6) over IC50 against Tbr
Protocol: as §1

[6] = K1, K1 strain (resistant to chloroquine and pyrimethamine), mean of two independent measurements, read-out: IC50 P. falciparum (Pfc)
[7] = 72 h, pH 5.4, axenic amastigotes, pH 5.4, 72 h, mean of two independent measurements, read-out: IC50 L. donovani (Ldon)
[8] = L6 cells (rat skeletal myoblasts)
[9] = TULAHUEN, L6, 96 h, Tulahuen C2C4 in L-6 cells, 96 h, mean of two independent measurements
[10] = Trypanosoma brucei, 72 h, bloodstream forms STIB 900, 72 h, read-out: IC50 T. brucei rhodes. (Tbr)
[11] = Trypanosoma brucei, 72 h, read-out: IC50 T. brucei rhodes. (Tbr), bloodstream forms STIB 900, 72 h
[12] = K1, read-out: IC50 P. falciparum (Pfc)
[13] = axenic amastigotes, pH 5.4, 72 h, mean of two independent measurements, read-out: IC50 L. donovani (Ldon)
[14] = L6, Tulahuen C2C4 in L-6 cells, 96 h, mean of two independent measurements

Row | SMILES | IC50 [1, 6] [µM] | IC50 [2, 7] [µM] | IC50 at 72 h [3, 8] [µM] | IC50 [4, 9] [µM] | IC50 [5, 10] [µM] | IC50 [3] [µM] | further results
1 | C=C1C(=O)OC2CC3(C)CC(=O)CC(C)C3=CC12 (centres unmarked) [Compound 30] | 10.7 | 8.7 | 10.2 | 17.3 | 1.6 |  | 
2 | C=C1C(=O)OC2CC(C)C3C=CC(=O)C3(C)C(O)C12 (centres unmarked) [Compound 8] |  |  |  |  |  |  | IC50 ([2]; 72 h, pH 5.4, read-out: IC50 L. donovani (Ldon)): > 4 µM; IC50 at 72 h [3]: 2.44 µM; IC50 ([4]; TULAHUEN, L6, 96 h): 1.87 µM; IC50 [5, 11]: 0.319 µM
3 | CC1=CCCC2(C)OC2C2OC(=O)C(C)C2CC1 (centres unmarked) [Compound 35] | > 20 | 35.6 | 133 | > 120 | 49 |  | 
4 | C=C1C(=O)OC2CC3(C)C(CCC(C)=O)C3CC12 (centres unmarked) [Compound 20] | 12.7 | 14.6 |  | 39 | 15.9 |  | IC50 at 72 h [3]: 19.8 µM
5 | C=C1C(=O)OC2CC(C)C3(O)C=C(C(C)=O)C4(CC3CC12)C(=O)OC1CC(C)C(C=CC(C)=O)=CCC14 (centres unmarked) [Compound 21] | 4.96 | 22 | 9.43 | 16.1 | 0.638 |  | 
6 | C=C1C(=O)OC2CC(C)C3C(O)CC(O)C3(C)C(OC(=O)C(C)=CC)C12 (centres unmarked) [Compound 13] |  |  |  |  | 19.2 | 31.8 | IC50 [1, 12]: 27.5 µM; IC50 [2, 13]: 14.5 µM; IC50 [4, 14]: 60.2 µM
7 | CC1CC2OC(=O)C(C)C2C(O)C2(C)C(=O)C=CC12 (centres unmarked) [Compound 5] |  |  |  |  | 0.686 | 8.9 | IC50 [1, 12]: 3.05 µM; IC50 [2, 13]: 3.85 µM; IC50 [4, 14]: 21.5 µM
8 | CC1CC2OC(=O)C34CC5(C)C=CC13C(CC24)O5 (centres unmarked) [Compound 23] | > 20 | 15.4 |  | > 120 | 162 | > 365 | 
9 | C=C1C(=O)OC2C=C(C)CCC3OC3(COC(C)=O)CC(OC(=O)C3(C)OC3C)C12 (centres unmarked) [Compound 37] | 6.33 | 5.19 | 7.75 | 15.8 | 0.478 |  | 
10 | C=C1C(=O)OC2CC(C)C3=CC(=O)OC3CC12 (centres unmarked) [Compound 24] | > 20 | 27.1 | 427 | > 120 | 8.21 |  | selectivity index (SI) with respect to Ldon ([2]; ratio of cytotoxic IC50 (L6) over IC50 against Ldon): 15; selectivity index (SI) with respect to Tbr [5]: 52
11 | CC(C)CC(=O)OC1C2C(CC(C)C3C=CC(=O)C31C)OC(=O)C2C (centres unmarked) [Compound 7] | 1.6 | 1.48 | 4.58 | 3.53 | 0.911 |  | 
12 | CCCCCCCCCCCCCCCCOP(=O)([O-])OCC[N+](C)(C)C [miltefosine, reference compound] |  | 0.27 |  |  |  |  | 
13 | C=C1C(=O)OC2C=C(C)CCC3OC3(CO)CC(OC(=O)C3(C)OC3C)C12 (centres unmarked) [Compound 36] | 9.44 | 2.73 |  | 25.6 | 14.3 | 13.6 | 
14 | Nc1nc(N)nc(Nc2ccc([As]3SCC(CO)S3)cc2)n1 (centres unmarked) [melarsoprol, reference compound] |  |  |  |  |  |  | IC50 [5, 11]: 0.008 µM
15 | C=C1C(=O)OC2CC(C)C3C(OC(C)=O)CC(O)C3(C)C(OC(C)=O)C12 (centres unmarked) [Compound 15] | 5.98 | 8.68 |  | 16.3 | 3.96 | 7.28 | 
16 | C=C1C(=O)OC2CC(C)C3C=CC(=O)C3(C)C(OC(=O)C(C)C)C12 (centres unmarked) [Compound 3] |  |  |  |  | 0.105 | 1.03 | IC50 [1, 12]: 0.7 µM; IC50 [2, 13]: 0.837 µM; IC50 [4, 14]: 1.57 µM

Row | SMILES | IC50 [1, 6] [µM] | IC50 [2, 7] [µM] | IC50 at 72 h [3, 8] [µM] | IC50 [4, 9] [µM] | IC50 [5, 10] [µM] | IC50 [3] [µM] | further results
17 | C=C1C(=O)O[C@@H]2C[C@@H](C)[C@@H]3C=CC(=O)[C@@]3(C)[C@@H](O)[C@H]12 [Compound 1, helenalin] |  |  |  |  |  |  | IC50 at 72 h [3]: 0.992 µM; IC50 ([4]; TULAHUEN, L6, 96 h): 0.695 µM; IC50 [5, 11]: < 0.1 µM; IC50 ([5]; read-out: IC50 T. brucei rhodes. (Tbr), bloodstream forms STIB 900, 72 h): 0.052 µM; IC50 ([5]; read-out: IC50 T. brucei rhodes. (Tbr), bloodstream forms STIB 900, 72 h, listed as helenalin): 0.05 to 0.1 µM
18 | C=C1C(=O)OC2CC(C)C(CCC(C)=O)=CCC12 (centres unmarked) [Compound 17] | > 20 | 23.8 | 179 | > 120 | 62.1 |  | 
19 | C=C1C(=O)OC2CC(C)C3C(O)CC(OC(=O)C(C)=CC)C3(C)C(O)C12 (centres unmarked) [Compound 12] | 10.6 | 18 |  | 49.2 | 11 | 16.7 | 
20 | C=C1C(=O)OC2CC(C)C3C(OC(C)=O)CC(OC(C)=O)C3(C)CC12 (centres unmarked) [Compound 14] | 8.94 | 4.26 | 8.43 | 14.7 | 1.17 |  | 
21 | C=C1C(=O)OC2CC(C)C3C(OC(C)=O)CC(O)C3(COC(C)=O)CC12 (centres unmarked) [Compound 16] | 10.7 | 11.8 | 21.6 | 44.9 | 13.6 |  | 
22 | C=C1C(=O)O[C@H]2[C@H]1CC/C(C)=C/CC[C@@]1(C)O[C@@H]21 [Compound 34, parthenolide] | 11.9 | 3.56 | 7.24 | 10.7 | 0.388 |  | 
23 | C=C1C(=O)OC2CC(C)C3C=CC(=O)C3(C)C(OC(C)=O)C12 (centres unmarked) [Compound 2] |  |  |  |  | < 0.1 | 0.809 | IC50 [1, 12]: 0.329 µM; IC50 [2, 13]: 0.446 µM; IC50 [4, 14]: 0.538 µM; IC50 ([5]; bloodstream forms STIB 900, 72 h, read-out: IC50 T. brucei rhodes. (Tbr)): 0.063 µM; selectivity index (SI) with respect to Tbr [5]: 13
24 | C=C(C(=O)OC1CC(C)=CCCC(CO)=CC2OC(=O)C(=C)C21)C(O)CO (centres unmarked) [Compound 33] | 6.32 | 15.2 | 10.2 | 16.8 | 1.3 |  | 
25 | C=C1C(=O)OC2C=C(C)C(O)CC3OC3(COC(C)=O)CC(OC(=O)C(C)=CC)C12 (centres unmarked) [Compound 40] | 6.64 | 17.1 |  | 11.8 | 0.698 | 6.67 | 
26 | CC(=O)OC1C2C(CC(C)C3C=CC(=O)C31C)OC(=O)C2C (centres unmarked) [Compound 6] |  | > 4 | 3.06 | 6.93 | 1.42 |  | 
27 | C=C1C(=O)OC2CC(C)C3C(OC(C)=O)CC(O)C3(C)C(O)C12 (centres unmarked) [Compound 9] |  |  |  | 45.8 | 9.28 | 12.3 | 
28 | C=C1C(=O)OC2CC(C)C3C(O)CC(O)C3(C)CC12 (centres unmarked) [Compound 11] | 12.1 | 20.6 | 31.9 | 52.7 | 18.3 |  | 
29 | O=C(Cn1ccnc1[N+](=O)[O-])NCc1ccccc1 [benznidazole, reference compound] |  |  |  | 2 |  |  | 
30 | C=C1CC(O)CC2(C)CC3OC(=O)C(C)C3CC12 (centres unmarked) [Compound 28] | > 20 | > 120 | 187 | > 120 | 341 |  | 
31 | CCN(CC)CCCC(C)Nc1ccnc2cc(Cl)ccc12 (centres unmarked) [chloroquine, reference compound] |  |  |  |  |  |  | IC50 [1, 12]: 0.248 µM
32 | COc1cc([C@@H]2c3cc4c(cc3[C@H](O)[C@H]3COC(=O)[C@H]23)OCO4)cc(OC)c1OC [podophyllotoxin, reference compound] |  |  |  |  |  |  | IC50 at 72 h [3]: 0.012 µM
